Measured values taken from patent US10683269B2 (MISSION THERAPEUTICS LIMITED, priority 2016, dated 2020).
pIC50: −log10 of the molar value.

target: T1, USP7 (Homo sapiens, UniProt Q93009); assay: USP7 biochemical IC50 assay (fluorescence polarisation, TAMRA labelled peptide linked to ubiquitin via an iso-peptide bond); details: 30 min pre-incubation of enzyme and compound, read after 2 hr incubation at room temperature, read-out: IC50 range
T1 construct: The USP7 construct was PCR amplified and cloned into a pFLAG-CMV-6a vector (Sigma-Aldrich) with an N-terminal FLAG tag; made in house; host or cells: HEK293T
Description: In Vitro USP7 Inhibition Assay
Expression and Purification of USP7
The USP7 construct was PCR amplified and cloned into a pFLAG-CMV-6a vector (Sigma-Aldrich) with an N-terminal FLAG tag. HEK293T cells were transfected with FLAG-USP7 using TransIT-LT1 transfection reagent (Mirus) according to the manufacturer's instructions. Cells were harvested 40 hours after transfection. […] The resin was washed two times with low salt buffer plus protease inhibitors (complete mini, Roche) and phosphatase inhibitors (PhosSTOP mini, Roche) and one time with high salt buffer (20 mM Tris, pH 7.5, 500 mM NaCl, 0.5 mM EDTA, 5 mM beta-mercaptoethanol, protease inhibitors (complete mini, Roche) and phosphatase inhibitors (PhosSTOP mini, Roche). To elute the bound USP7, elution buffer (10 mM Tris, pH 7.5, 150 mM NaCl, 0.5 mM EDTA, 10% glycerol, 0.5% NP40, 5 mM beta-mercaptoethanol, 0.15 mg/ml 3×FLAG peptide (Sigma-Aldrich)) was added to the resin and incubated at 4° C. for 2.5 hours rotating. The resin was centrifuged at 4000 rpm for 30 seconds, and the supernatant containing purified FLAG-USP7 was removed and stored at −80° C.
USP7 Biochemical IC50 Assay
A typical 8-point dilution series would be 100, 30, 10, 3, 1, 0.3, 0.1, 0.03 μM final. […] Either 1 μl of 50% DMSO or diluted compound was added to the plate. USP7 was diluted in reaction buffer (20 mM Tris, pH 7.5, 100 mM NaCl, 0.05% Tween 20, 0.5 mg/ml BSA, 5 mM—beta mercaptoethanol) to the equivalent of 0.0025 μl/well and 10 μl of diluted USP7 was added to the compound. Enzyme and compound were incubated for 30 min at room temp. Reactions were initiated by the addition of 50 nM of TAMRA labelled peptide linked to ubiquitin via an iso-peptide bond as fluorescence polarisation substrate. Reactions were read immediately after addition of substrate and following a 2 hr incubation at room temperature. Readings were performed on a Pherastar Plus (BMG Labtech). λ Excitation 540 nm; λ Emission 590 nm.

T1 sequence (Q93009 whole entry): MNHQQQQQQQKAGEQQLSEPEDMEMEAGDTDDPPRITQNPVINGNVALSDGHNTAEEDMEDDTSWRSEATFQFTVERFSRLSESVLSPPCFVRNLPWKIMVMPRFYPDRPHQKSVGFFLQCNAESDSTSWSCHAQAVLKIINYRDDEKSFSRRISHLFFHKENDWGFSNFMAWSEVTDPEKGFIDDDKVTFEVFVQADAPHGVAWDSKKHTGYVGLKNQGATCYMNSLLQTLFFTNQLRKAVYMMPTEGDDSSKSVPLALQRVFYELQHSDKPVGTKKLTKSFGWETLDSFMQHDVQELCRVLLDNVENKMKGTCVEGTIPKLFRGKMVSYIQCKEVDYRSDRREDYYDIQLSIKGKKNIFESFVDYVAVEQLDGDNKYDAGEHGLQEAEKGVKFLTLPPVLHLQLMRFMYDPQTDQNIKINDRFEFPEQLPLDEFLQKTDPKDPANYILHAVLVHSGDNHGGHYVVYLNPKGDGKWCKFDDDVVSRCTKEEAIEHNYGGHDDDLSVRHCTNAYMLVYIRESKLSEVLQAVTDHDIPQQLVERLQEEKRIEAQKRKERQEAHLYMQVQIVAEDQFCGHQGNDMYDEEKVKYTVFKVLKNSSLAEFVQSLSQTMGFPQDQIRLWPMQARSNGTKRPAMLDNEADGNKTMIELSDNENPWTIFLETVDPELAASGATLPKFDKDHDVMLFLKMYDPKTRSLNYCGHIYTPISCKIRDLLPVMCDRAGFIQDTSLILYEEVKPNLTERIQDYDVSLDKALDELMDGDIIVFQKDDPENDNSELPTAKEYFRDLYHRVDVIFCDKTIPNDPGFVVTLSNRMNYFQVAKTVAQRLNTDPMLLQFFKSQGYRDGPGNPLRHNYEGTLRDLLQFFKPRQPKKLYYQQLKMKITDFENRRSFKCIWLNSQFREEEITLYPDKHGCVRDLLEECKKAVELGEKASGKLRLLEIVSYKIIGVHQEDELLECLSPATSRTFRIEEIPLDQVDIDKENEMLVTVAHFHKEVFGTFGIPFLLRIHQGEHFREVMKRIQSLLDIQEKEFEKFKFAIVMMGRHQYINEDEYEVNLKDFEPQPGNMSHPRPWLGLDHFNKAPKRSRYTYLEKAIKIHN

Compound	pIC50
Cn1nccc1C(=O)Nc1cc2c(c(-c3ccccc3)c1)CN(C#N)C2 [Example 39, N-(2-cyano-7-phenylisoindolin-5-yl)-1-methyl-1H-pyrazole-5-carboxamide]	5.00 to 6.00
N#CN1Cc2cc(NC(=O)C3CN(Cc4ccccc4)CCO3)cc(-c3ccccc3)c2C1 (stereo not drawn) [Example 40, 4-benzyl-N-(2-cyano-7-phenylisoindolin-5-yl)morpholine-2-carboxamide]	5.00 to 6.00
N#CN1Cc2cc(NC(=O)CCc3cccnc3)cc(-c3ccccc3)c2C1 [Example 41, N-(2-cyano-7-phenylisoindolin-5-yl)-3-(pyridin-3-yl)propanamide]	5.00 to 6.00
CN1CCC(C(=O)Nc2cc3c(c(-c4ccccc4)c2)CN(C#N)C3)C1 (stereo not drawn) [Example 43, N-(2-cyano-7-phenyl-isoindolin-5-yl)-1-methylpyrrolidine-3-carboxamide]	4.00 to 4.52
CC(=O)N1CCCC(C(=O)Nc2cc3c(c(-c4ccccc4)c2)CN(C#N)C3)C1 (stereo not drawn) [Example 45, 1-acetyl-N-(2-cyano-7-phenylisoindolin-5-yl)piperidine-3-carboxamide]	5.00 to 6.00
CN(C)C(=O)CCC(=O)Nc1cc2c(c(-c3ccccc3)c1)CN(C#N)C2 [Example 46, N1-(2-cyano-7-phenylisoindolin-5-yl)-N4,N4-dimethylsuccinamide]	5.00 to 6.00
N#CN1Cc2cc(NC(=O)C3CCS(=O)(=O)CC3)cc(-c3ccccc3)c2C1 [Example 51, N-(2-cyano-7-phenylisoindoin-5-yl)tetrahydro-2H-thiopyran-4-carboxamide 1,1-dioxide]	5.00 to 6.00
CN1CCCC(C(=O)Nc2cc3c(c(-c4ccccc4C(N)=O)c2)CN(C#N)C3)C1 (stereo not drawn) [Example 56, N-(7-(2-carbamoylphenyl)-2-cyanoisoindolin-5-yl)-1-methylpiperidine-3-carboxamide]	5.00 to 6.00
CC(=O)Nc1cc2c(c(-c3ccccc3)c1)CN(C#N)C2 [Example 57]	5.00 to 6.00
CC(=O)N(C)c1cc2c(c(-c3ccccc3)c1)CN(C#N)C2 [Example 58, N-(2-cyano-7-phenylisoindolin-5-yl)-N-methylacetamide]	5.00 to 6.00
CN1CCCC(C(=O)N(C)c2cc3c(c(-c4ccccc4)c2)CN(C#N)C3)C1 (stereo not drawn) [Example 59, N-(2-cyano-7-phenylisoindolin-5-yl)-N,1-dimethylpiperidine-3-carboxamide]	5.00 to 6.00
CS(=O)(=O)Nc1cc2c(c(-c3ccccc3)c1)CN(C#N)C2 [Example 61, N-(2-cyano-7-phenylisoindolin-5-yl)methanesulfonamide]	5.00 to 6.00
N#CN1Cc2cc(NC(=O)C3CCNCC3)cc(-c3ccccc3)c2C1 [Example 63, N-(2-cyano-7-phenylisoindolin-5-yl)piperidine-4-carboxamide]	5.00 to 6.00
N#Cc1ccc(-c2cccc3c2CN(C#N)C3)c(Cl)c1 [Example 65, 4-(2-chloro-4-cyanophenyl)isoindoline-2-carbonitrile]	5.00 to 6.00
Cc1cc(C#N)ccc1-c1cccc2c1CN(C#N)C2 [Example 66, 4-(4-cyano-2-methylphenyl)isoindoline-2-carbonitrile]	5.00 to 6.00
Cc1cc(C#N)cc(C)c1-c1cccc2c1CN(C#N)C2 [Example 67, 4-(4-cyano-2,6-dimethylphenyl)isoindoline-2-carbonitrile]	5.00 to 6.00
N#CN1Cc2cccc(-c3cccc4c3C(=O)NC4)c2C1 [Example 68, 3-oxo-[4,4′-biisoindoline]-2′-carbonitrile]	5.00 to 6.00
N#CN1Cc2cccc(-c3cccc4c3C(=O)NCC4)c2C1 [Example 69, 4-(1-oxo-1,2,3,4-tetrahydroisoquinolin-8-yl)isoindoline-2-carbonitrile]	5.00 to 6.00
C[C@@H](O)c1ccccc1-c1cccc2c1CN(C#N)C2 [Example 70, (R)-4-(2-(1-hydroxyethyl)phenyl)isoindoline-2-carbonitrile]	5.00 to 6.00
C[C@H](O)c1ccccc1-c1cccc2c1CN(C#N)C2 [Example 71, (S)-4-(2-(1-hydroxyethyl)phenyl)isoindoline-2-carbonitrile]	5.00 to 6.00
N#Cc1ccc(-c2cccc3c2CN(C#N)C3)c(C#N)c1 [Example 72, 4-(2-cyanoisoindolin-4-yl)isophthalonitrile]	> 6.00
N#CN1Cc2cccc(-c3cccc(C(=O)NCc4ccccc4)c3)c2C1 [Example 73, N-benzyl-3-(2-cyanoisoindolin-4-yl)benzamide]	5.00 to 6.00
CC(NC(=O)c1cccc(-c2cccc3c2CN(C#N)C3)c1)c1ccccc1 (stereo not drawn) [Example 74, 3-(2-cyanoisoindolin-4-yl)-N-(1-phenylethyl)benzamide]	5.00 to 6.00
N#CN1Cc2cccc(-c3cccc(C(=O)Nc4ccccc4)c3)c2C1 [Example 75, 3-(2-cyanoisoindolin-4-yl)-N-phenylbenzamide]	5.00 to 6.00
C[C@@H](NC(=O)c1cccc(-c2cccc3c2CN(C#N)C3)c1)c1ccccc1 [Example 76, (R)-3-(2-cyanoisoindolin-4-yl)-N-(1-phenylethyl)benzamide]	5.00 to 6.00
N#CN1Cc2cccc(-c3ccccc3C(=O)NCCN)c2C1 [Example 77, N-(2-aminoethyl)-2-(2-cyanoisoindolin-4-yl)benzamide]	5.00 to 6.00
N#CN1Cc2cccc(-c3ccccc3C(=O)N3CCNCC3)c2C1 [Example 78, 4-(2-(piperazine-1-carbonyl)phenyl)isoindoline-2-carbonitrile]	5.00 to 6.00
N#CN1Cc2cccc(-c3ccnc(C(=O)NCc4ccccc4)c3)c2C1 [Example 79, N-benzyl-4-(2-cyanoisoindolin-4-yl)picolinamide]	5.00 to 6.00

Further lines, results first:

pIC50	Compound
> 6.00	CN1CCC[C@@H](C(=O)Nc2cc3c(c(-c4ccccc4)c2)CN(C#N)C3)C1 [Example 38, (R)—N-(2-cyano-7-phenylisoindolin-5-yl)-1-methylpiperidine-3-carboxamide]
> 6.00	N#CN1Cc2cc(NC(=O)C3CNC(=O)C3)cc(-c3ccccc3)c2C1 (stereo not drawn) [Example 42, N-(2-cyano-7-phenylisoindolin-5-yl)-5-oxopyrrolidine-3-carboxamide]
> 6.00	CN1CC(C(=O)Nc2cc3c(c(-c4ccccc4)c2)CN(C#N)C3)CCC1=O (stereo not drawn) [Example 44, N-(2-cyano-7-phenylisoindolin-5-yl)-1-methyl-6-oxopiperidine-3-carboxamide]
> 6.00	CC(=O)N1CCC(C(=O)Nc2cc3c(c(-c4ccccc4)c2)CN(C#N)C3)CC1 [Example 47, 1-acetyl-N-(2-cyano-7-phenylisoindolin-5-yl)piperidine-4-carboxamide]
> 6.00	CN1CCC(C(=O)Nc2cc3c(c(-c4ccccc4)c2)CN(C#N)C3)CC1 [Example 48, N-(2-cyano-7-phenylisoindolin-5-yl)-1-methylpiperidine-4-carboxamide]
> 6.00	CN(C)CC(=O)Nc1cc2c(c(-c3ccccc3)c1)CN(C#N)C2 [Example 49]
> 6.00	N#CN1Cc2cc(NC(=O)C3CCOCC3)cc(-c3ccccc3)c2C1 [Example 50, N-(2-cyano-7-phenylisoindolin-5-yl)tetrahydro-2H-pyran-4-carboxamide]
> 6.00	CN1CC(C(=O)Nc2cc3c(c(-c4ccccc4)c2)CN(C#N)C3)CC1=O (stereo not drawn) [Example 52, N-(2-cyano-7-phenylisoindolin-5-yl)-1-methyl-5-oxopyrrolidine-3-carboxamide]
> 6.00	CN1CCOC(C(=O)Nc2cc3c(c(-c4ccccc4)c2)CN(C#N)C3)C1 (stereo not drawn) [Example 53, N-(2-cyano-7-phenylisoindolin-5-yl)-4-methylmorpholine-2-carboxamide]
> 6.00	CCN1CCOC(C(=O)Nc2cc3c(c(-c4ccccc4)c2)CN(C#N)C3)C1 (stereo not drawn) [Example 54, N-(2-cyano-7-phenylisoindolin-5-yl)-4-ethylmorpholine-2-carboxamide]
> 6.00	CC(C)N1CCOC(C(=O)Nc2cc3c(c(-c4ccccc4)c2)CN(C#N)C3)C1 (stereo not drawn) [Example 55, N-(2-cyano-7-phenylisoindolin-5-yl)-4-isopropylmorpholine-2-carboxamide]
> 6.00	CN1CCN(C(=O)Nc2cc3c(c(-c4ccccc4)c2)CN(C#N)C3)CC1 [Example 60, N-(2-cyano-7-phenylisoindolin-5-yl)-4-methylpiperazine-1-carboxamide]
> 6.00	N#CN1Cc2cc(NC(=O)C3CCCNC3)cc(-c3ccccc3)c2C1 (stereo not drawn) [Example 62, N-(2-cyano-7-phenylisoindolin-5-yl)piperidine-3-carboxamide]
> 6.00	CN1CCCC(CNc2cc3c(c(-c4ccccc4)c2)CN(C#N)C3)C1 (stereo not drawn) [Example 64, 6-(((1-methylpiperidin-3-yl)methyl)amino)-4-phenylisoindoline-2-carbonitrile]
